Experiments:
[1] = tested on: harmful plants Abutilon theophrasti, Ambrosia elatior, Digitaria sanguinalis, Echinochloa crus galli, Pharbitis purpureum, Fallopia convolvulus, Setaria …; experiment: Herbicidal post-emergence action, second test series, mean over ten harmful plants; type: in vivo; settings: Table 5, mean value of the herbicidal actions against ten harmful plants, each herbicide 200 g of a.i./ha, safener C1 100 g of a.i./ha
Experimental: (§1) Seeds of monocotyledonous and dicotyledonous weed and crop plants are placed into sandy loam in wood fiber pots or in plastic pots, covered with soil and cultivated in a greenhouse, including during the vegetation period outdoors outside of the greenhouse, under good growth conditions. 2-3 weeks after sowing, the test plants are treated at the one- to three-leaf stage. The test compounds, formulated as wettable powders (WP) or liquid (EC) are, in various dosages with a water application rate of 300 l/ha (converted), with added wetting agent (0.2 to 0.3%), sprayed onto the plants and the surface of the soil. 3 to 4 weeks after the treatment of the test plants, the effect of the preparations is rated visually in comparison to untreated controls (herbicidal effect in percent (%): 100% effect=plants have died, 0% effect=like control plants).
(§2) In a second test series, the herbicidal action and the damage to corn of the compositions according to the invention (A+Bx+C1) was compared to that of the herbicide alone (A) and to that of a herbicidal composition (A+C1) known from the prior art.

corn = experiment: Post-emergence damage to corn, second test series; settings: in vivo
Experimental: as §1, §2

In the case of CS(=O)(=O)c1ccc(C(=O)C2C(=O)CCCC2=O)c(Cl)c1COCC(F)(F)F [A], the Herbicidal action [1] is reported as 86% and the Damage to corn (corn) is reported as 11%.

— patent US7786041B2, “Synergistic crop plant-compatible herbicidal compositions comprising herbicides from the group of the benzoylcyclohexanediones” (priority 2005, dated 2010)
